Our source for the IC50 values is US8877946B2, “Benzylidene-indolinone compounds and their medical use” (National University of Singapore, priority 2011, dated 2014).

For this test, the system named is HuH7 cells. The test is described as follows: MTT antiproliferative (growth inhibition) assay on HuH7 cells. The format is cell-based, human. The settings on record: Homo sapiens, Huh-7, MTT, 72 h incubation, mean and SD of 3 or more independent determinations (Tables 1-8), read-out: IC 50. From the text:
MTT was purchased from DUCHEFA Biochemie ([…]). Sunitinib, and sodium dodecyl sulfate, bovine serum albuminwere obtained from Sigma Aldrich (Singapore). Sorafenib was purchase from Ontario Chem. Fetal bovine serum (FBS) was obtained from Invitrogen. Human hepatocellular carcinoma cells (HuH-7 and Hep G2), and human diploid fibroblast strain (IMR 90). HuH7 was obtained as gifts from Dr Ho Han Kiat, Department of Pharmacy, NUS. IMR90 and Hep G2 were purchased from American Type Culture Collection (ATCC). HuH-7 cells were cultured in DMEM (Dulbecco's Modified Eagle Medium, high glucose) with 10% v/v fetal bovine serum (FBS), 100 mg/L penicillin G and 100 mg/L streptomycin. IMR 90 cell were cultured in EMEM (Eagle's Minimum Essential Medium), with 10% v/v FBS and 100 mg/L penicillin G and 100 mg/L streptomycin. The cells were sub-cultured when HuH7 or Hep G2 reached a density of 70-80×10^5 cell/T75 flask, and IMR 90 reached 20×10^5 cell/T75 flask. Cells were used within 2-10 passages for viability experiments.
The anti-proliferative activity of the test compounds were determined by the MTT assay. An aliquot (200 μL, 3×10^4 cells/mL for HuH7, 3.75×10^4 cells/mL for Hep G2, and 2×10^4 cells/mL for IMR 90) of medium was added to each well of the microtitre plate. […] The existing medium was removed from each well and replaced by fresh medium (200 μL) containing a known concentration of test compound. The final concentration of DMSO in each well was maintained at 0.5% v/v. (1% v/v was also utilized if the compounds were not soluble) The test compounds were incubated with the cells for another 72 h at 37 deg C., 5% CO2. The medium was then removed from the well and replaced with FBS free medium (200 μL) and MTT (50 μL of 2 mg/mL solution in phosphate buffer saline, pH 7.4). The phosphate buffer saline comprises 10 mM of potassium phosphate and 137 mM sodium chloride. After incubation (3 h) at 37 deg C., 5% CO2, the supernatant was removed and a solution of 200 μL DMSO and 25 μL Sorenson buffer (0.1 M glycine, 0.1 M sodium chloride, adjusted to pH 10.5 with 0.1 M sodium hydroxide) was added to dissolve the formazan crystals in each well. Vehicle control were cells grown in 1% v/v DMSO/Medium for 72 h, 37 deg C., 5% CO2 while blank controls were wells that contained only 200 μL DMSO and 25 μL Sorenson buffer. Absorbances were measured at 570 nm on a microplate reader (Tecan, Infinite 200). The viability of cells at a given concentration of test compound was determined from the expression:
[formula] where abs_compound=absorbance of wells containing cells and test compound, abs_vehicle (Not the same as above. Change to abs_vehicle)=absorbance of vehicle control and abs_blank=absorbance of blank control.
Each concentration of test compound was evaluated at least 3 times on separate occasions, and two different stock solution were used. The IC50 value (concentration that inhibited 50% of cell growth) was determined from the sigmoidal curve obtained by plotting percentage viability versus logarithmic concentration of test compound using GraphPad Prism 5 (San Diego, USA).
`O=C1Nc2cc(F)ccc2/C1=C\c1cccc(OC(F)(F)F)c1` [Compound 3-8, (E)-6-Fluoro-3-(3-trifluoromethoxyl-benzylidene)-1,3-dihydro-indol-2-one]: the IC50 is 7.48 ± 0.2 µM. Take `CS(=O)(=O)c1cccc(/C=C2/C(=O)Nc3cc(F)ccc32)c1` [Compound 3-9, (E)-6-Fluoro-3-(3-methanesulfonyl-benzylidene)-1,3-dihydro-indol-2-one]: the IC50 amounted to 12.7 ± 1.54 µM. To `O=C1Nc2ccc(F)cc2/C1=C\c1ccccc1` [Compound 4-1, (E)-3-Benzylidene-5-fluoro-1,3-dihydro-indol-2-one] belongs 21.4 ± 1.73 µM; to `O=C1Nc2ccc(F)cc2/C1=C\c1ccccc1F` [Compound 4-2, (E)-5-Fluoro-3-(2-fluoro-benzylidene)-1,3-dihydro-indol-2-one], greater than 30 µM.

`O=C1Nc2ccc(F)cc2/C1=C\c1cccc(F)c1` [Compound 4-3, (E)-5-Fluoro-3-(3-fluoro-benzylidene)-1,3-dihydro-indol-2-one]: the IC50 was 13.3 ± 2.31 µM.

As to `O=C1Nc2ccc(F)cc2/C1=C\c1ccc(F)cc1` [Compound 4-4, (E)-5-Fluoro-3-(4-fluoro-benzylidene)-1,3-dihydro-indol-2-one], the IC50 was determined as 13.2 ± 0.42 µM. In the case of `Cc1ccccc1/C=C1/C(=O)Nc2ccc(F)cc21` [Compound 4-5, (E)-5-Fluoro-3-(2-methyl-benzylidene)-1,3-dihydro-indol-2-one], the IC50 was 11.7 ± 1.1 µM. Consider `Cc1cccc(/C=C2/C(=O)Nc3ccc(F)cc32)c1` [Compound 4-6, (E)-5-Fluoro-3-(3-methyl-benzylidene)-1,3-dihydro-indol-2-one], for which the IC50 is greater than 30 µM.

As to `Cc1ccc(/C=C2/C(=O)Nc3ccc(F)cc32)cc1` [Compound 4-7, (E)-5-Fluoro-3-(4-methyl-benzylidene)-1,3-dihydro-indol-2-one], the IC50 worked out at 20.8 ± 4.02 µM.

Turning to `COc1cccc(/C=C2/C(=O)Nc3ccc(F)cc32)c1` [Compound 4-8, (E)-5-Fluoro-3-(3-methoxy-benzylidene)-1,3-dihydro-indol-2-one], the IC50 was 16.4 ± 4.15 µM. As for `O=C1Nc2ccc(F)cc2/C1=C\c1ccccc1C(F)(F)F` [Compound 4-9, (E)-5-Fluoro-3-(2-trifluoromethyl-benzylidene)-1,3-dihydro-indol-2-one], the IC50 was greater than 30 µM. The same measure for `O=C1Nc2ccc(F)cc2/C1=C\c1cccc(C(F)(F)F)c1` [Compound 4-10, (E)-5-Fluoro-3-(3-trifluoromethyl-benzylidene)-1,3-dihydro-indol-2-one, reference compound]: 4.04 ± 0.54 µM; for `O=C1Nc2ccc(F)cc2/C1=C\c1ccc(C(F)(F)F)cc1` [Compound 4-11, (E)-5-Fluoro-3-(4-trifluoromethylbenzylidene)-1,3-dihydro-indol-2-one]: 9.31 ± 1.04 µM. Regarding `O=C1Nc2ccc(F)cc2/C1=C\c1ccc(F)c(F)c1` [Compound 4-12, (E)-3-(3,4-Difluoro-benzylidene)-5-fluoro-1,3-dihydro-indol-2-one], the IC50 was found to be 15.3 ± 0.18 µM. In the case of `O=C1Nc2ccc(F)cc2/C1=C\c1cccc(OC(F)(F)F)c1` [Compound 4-13, (E)-5-Fluoro-3-(3-trifluoromethoxy-benzylidene)-1,3-dihydro-indol-2-one], the IC50 is 23.1 ± 4.75 µM. Take `CS(=O)(=O)c1cccc(/C=C2/C(=O)Nc3ccc(F)cc32)c1` [Compound 4-14, (E)-5-Fluoro-3-(3-methanesulfonyl-benzylidene)-1,3-dihydro-indol-2-one]: the IC50 came out at 5.19 ± 0.63 µM.

Turning to `N#Cc1cccc(/C=C2/C(=O)Nc3ccc(F)cc32)c1` [Compound 4-15, (E) 3-(5-Fluoro-2-oxo-1,2-dihydro-indol-3-ylidenemethyl)-benzonitrile], the IC50 was determined as 7.36 ± 1.08 µM.

Consider `COc1ccc2c(c1)NC(=O)/C2=C/c1ccccc1` [Compound 5-1, (E)-3-Benzylidene-6-methoxy-1,3-dihydro-indol-2-one], for which the IC50 worked out at 0.94 ± 0.19 µM. As to `COc1ccc2c(c1)NC(=O)/C2=C/c1ccccc1F` [Compound 5-2, (E)-3-(2-Fluoro-benzylidene)-6-methoxy-1,3-dihydro-indol-2-one], the IC50 was 0.49 ± 0.05 µM. On to `COc1ccc2c(c1)NC(=O)/C2=C/c1cccc(F)c1` [Compound 5-3, (E)-3-(3-Fluoro-benzylidene)-6-methoxy-1,3-dihydro-indol-2-one], for which the IC50 came out at 0.71 ± 0.07 µM. Take `COc1ccc2c(c1)NC(=O)/C2=C/c1ccc(F)cc1` [Compound 5-4, (E)-3-(4-Fluorobenzylidene)-6-methoxy-1,3-dihydro-indol-2-one]: the IC50 is 5.36 ± 0.14 µM. As to `COc1ccc2c(c1)NC(=O)/C2=C/c1ccccc1C(F)(F)F` [Compound 5-5, (E) 6-Methoxy-3-(2-trifluoromethyl-benzylidene)-1,3-dihydro-indol-2-one], the IC50 stood at 7.04 ± 0.8 µM. In the case of `COc1ccc2c(c1)NC(=O)/C2=C/c1cccc(C(F)(F)F)c1` [Compound 5-6, (E)-6-Methoxy-3-(3-trifluoromethyl-benzylidene)-1,3-dihydro-indol-2-one, reference compound], the IC50 came to 1.2 ± 0.05 µM. For `COc1ccc2c(c1)NC(=O)/C2=C/c1ccc(C(F)(F)F)cc1` [Compound 5-7, (E)-6-Methoxy-3-(4-trifluoromethyl-benzylidene)-1,3-dihydro-indol-2-one], the IC50 was greater than 30 µM.

Turning to `CNS(=O)(=O)c1cccc(/C=C2/C(=O)Nc3cc(OC)ccc32)c1` [Compound 5-8, (E)-3-(6-Methoxy-2-oxo-1,2-dihydro-indol-3-ylidenemethyl)-N-methyl-benzenesulphonamide], the IC50 came to 0.17 ± 0.02 µM. In the case of `O=C1Nc2ccc(F)c(F)c2/C1=C/c1ccccc1` [Compound 6-1, (Z)-3-Benzylidene-4,5-difluoro-1,3-dihydro-indol-2-one], the IC50 is 31.1 ± 2.12 µM. As to `O=C1Nc2ccc(F)c(F)c2/C1=C/c1ccccc1F` [Compound 6-2, (Z)-4,5-Difluoro-3-(2-fluoro-benzylidene)-1,3-dihydro-indol-2-one], the IC50 was 16.9 ± 1.67 µM. As to `O=C1Nc2ccc(F)c(F)c2/C1=C/c1cccc(F)c1` [Compound 6-3, (Z)-4,5-Difluoro-3-(3-fluoro-benzylidene)-1,3-dihydro-indol-2-one], the IC50 was 15.9 ± 1.14 µM. In the case of `O=C1Nc2ccc(F)c(F)c2/C1=C/c1ccc(F)cc1` [Compound 6-4, (Z)-4,5-Difluoro-3-(4-fluoro-benzylidene)-1,3-dihydro-indol-2-one], the IC50 came to 14 ± 0.73 µM.

On to `O=C1Nc2ccc(F)c(F)c2/C1=C/c1ccc(C(F)(F)F)cc1` [Compound 6-7, (Z)-4,5-Difluoro-3-(4-trifluoromethyl-benzylidene)-1,3-dihydro-indol-2-one], for which the IC50 is greater than 30 µM. To `O=C1Nc2ccc(F)c(F)c2/C1=C/c1cccc(OC(F)(F)F)c1` [Compound 6-8, (Z)-4,5-Difluoro-3-(3-trifluoromethoxyl-benzylidene)-1,3-dihydro-indol-2-one] belongs 2.94 ± 0.26 µM; to `CNS(=O)(=O)c1cccc(/C=C2\C(=O)Nc3ccc(F)c(F)c32)c1` [Compound 6-10, (Z)-3-(4,5-Difluoro-2-oxo-1,2-dihydro-indol-3-ylidenemethyl)-N-methyl-benzenesulphonamide], 15.8 ± 3.37 µM; to `O=C1Nc2cc(F)c(F)cc2/C1=C\c1ccccc1` [Compound 7-1, (E)-3-Benzylidene-5,6-difluoro-1,3-dihydro-indol-2-one], greater than 30 µM. Regarding `O=C1Nc2cc(F)c(F)cc2/C1=C\c1ccccc1F` [Compound 7-2, (E)-5,6-Difluoro-3-(2-fluoro-benzylidene)-1,3-dihydro-indol-2-one], the IC50 is greater than 30 µM. For `O=C1Nc2cc(F)c(F)cc2/C1=C\c1cccc(F)c1` [Compound 7-3, (E)-5,6-Difluoro-3-(3-fluorobenzylidene)-1,3-dihydro-indol-2-one], the IC50 came to 19.2 ± 3.25 µM.

Regarding `O=C1Nc2cc(F)c(F)cc2/C1=C\c1ccccc1C(F)(F)F` [Compound 7-5, (E)-5,6-Difluoro-3-(2-trifluoromethyl-benzylidene)-1,3-dihydro-indol-2-one], the IC50 was greater than 30 µM.
